Data set [1] in a line: Zeta potential of lipid nanoparticles. It counts as physicochemical. The settings on record: TxT/DSPC/chol/PEG-DMG=50/3/47/1.5 (mol%). How it is done: (§1) The average particle size (number average value), ζ-average particle size, and polydispersity index (PdI) of the lipid nanoparticles in PBS(-) (pH 7.4), and the zeta potential in 10 mM HEPES buffer (pH 7.4) were measured using an analyzer "Zetasizer Nano ZS ZEN3600" (manufactured by Malvern) utilizing dynamic light scattering.

Another data set has as its system liver. Briefly: EGFP expression in liver tissue sections of mice administered EGFP mRNA-loaded lipid nanoparticles (confocal microscopy). The conditions noted are these: Example 27, Fig. 6; EGFP mRNA-loaded lipid nanoparticles TxT/DSPC/chol/PEG-DMG=50/3/47/1.5 (mol%); 24 hours post-administration. In kind it is in vivo, Balb/c mice. As for the experimental part: Subsequently, each EGFP mRNA-loaded lipid nanoparticle was administered to Balb/c mice at a dose of 0.2 mg mRNA/kg. At 23 hours and 50 minutes post-administration, fluorescently labeled lectin (DyLight-649 Lycopersicon (Tomato) Lectin) was intravenously injected via the tail vein at 40 µg/mouse to fluorescently label vascular endothelial cells. At 24 hours after administration of the lipid nanoparticles, the mice were euthanized, and their livers were collected to prepare tissue sections. For nuclear staining, the tissue sections were immersed in a nuclear staining solution (1 µg/mL Hoechst 33342 dissolved in PBS(-)), cooled on ice, and incubated for at least 30 minutes in the dark. The stained tissue sections were then observed using a confocal laser scanning microscope. Subsequently, in the same manner as Example 26, each EGFP mRNA-loaded lipid nanoparticle was administered to Balb/c mice. At 23 hours and 50 minutes post-administration, fluorescently labeled lectin was administered. At 24 hours after administration of the lipid nanoparticles, the mice were euthanized, and their livers were collected to prepare tissue sections. Each tissue section was observed using a confocal laser scanning microscope. In the figure, the upper panels show fluorescence images of EGFP, and the lower panels show fluorescence images of vascular endothelial cells (fluorescently labeled lectin).

The nature of data set [2]: Encapsulation rate of lipid nanoparticles (Ribogreen). It counts as physicochemical. The conditions noted are these: TxT/DSPC/chol/PEG-DMG=50/3/47/1.5 (mol%). As for the experimental part:
The encapsulation rate of the lipid nanoparticles was determined by measuring the amount of encapsulated nucleic acid (mRNA) using Ribogreen (manufactured by Life Technologies), which is an RNA intercalator. The mRNA amount was quantified based on a calibration curve prepared from a series of diluted mRNA solutions at known concentrations.
Specifically, 10 mM HEPES buffer (pH 7.4), 10 w/v% Triton X-100, and Ribogreen were mixed at 978.8 µL, 20 µL, and 1.25 µL per 10 wells, respectively, to obtain a Triton(+) buffer. A Triton(-) buffer was obtained in replacing Triton X-100 with 10 mM HEPES buffer (pH 7.4). 100 µL/well of the sample was added to a black 96-well plate for fluorescence measurement, and 100 µL/well of Triton(+) buffer or Triton(-) buffer was added. After the plate was gently shaken on a shaking incubator (SI-300, manufactured by AS ONE) (700 rpm, 30 seconds), the fluorescence intensity of each well was measured using a microplate reader (VARIOSKAN LUX, manufactured by Thermo Fisher Scientific) (wavelength Ex/Em=500 nm/525 nm), and the nucleic acid encapsulation rate (%) was calculated.

The nature of data set [3]: Average particle size and polydispersity index of lipid nanoparticles (dynamic light scattering). The conditions noted are these: TxT/DSPC/chol/PEG-DMG=50/3/47/1.5 (mol%). It counts as physicochemical. How it is done:
as §1

Data set [4] can be described thus: Apparent pKa of lipid nanoparticles (TNS). The conditions noted are these: Table 3; Fluc mRNA-loaded lipid nanoparticles; TxT/DSPC/chol/PEG-DMG=50/3/47/1.5 (mol%).
The mark [5] stands for this setting: Table 3, Fluc mRNA-loaded lipid nanoparticles.
[6] abbreviates: Table 5, EGFP mRNA-loaded lipid nanoparticles, total flow rate 3.0 mL/min.

What is called pKa is the negative logarithm of the acid dissociation constant.

`CCCCCCCCC(CCCCCC)CNC(=O)CCCC(=O)OCC(COC(=O)CCCC(=O)NCC(CCCCCC)CCCCCCCC)(COC(=O)CCCC(=O)NCC(CCCCCC)CCCCCCCC)NC(=O)CCN1CCCCC1` (stereo not drawn) [TxT-5-5A16β, 2-(((5-((2-hexyldecyl)amino)-5-oxopentanoyl)oxy)methyl)-2-(3-(piperidin-1-yl)propanamido)propane-1,3-diyl bis(5-((2-hexyldecyl)amino)-5-oxopentanoate)]: the ζ-potential in data set [1] (setting [5]) was -7.4 mV; in data set [1] (setting [6]), -8.9 mV. In the data set on liver, the “fluorescence of EGFP in the liver tissues” value (shortened to “fluorescence of EGFP”) is reported as “fluorescence of EGFP was observed”. Further, the mRNA concentration is given as 0.018 µg/µL in data set [2] (setting [5]) and 0.016 µg/µL in data set [2] (setting [6]). Moreover, the mRNA encapsulation rate in data set [2] (setting [5]) was 99.2%; in data set [2] (setting [6]), 99.1%. The Pdl turned out to be 0.07 in data set [3] (setting [5]) and 0.06 in data set [3] (setting [6]). Further, the “number average particle size” value is reported as 69.3 nm in data set [3] (setting [5]) and 80.1 nm in data set [3] (setting [6]). The ζ-average particle size in data set [3] (setting [5]) was determined as 89.4 nm; in data set [3] (setting [6]), 101.1 nm. The pKa in data set [4] is given as 4.90.
As for `CCCCCCCCCCN(CCCCCCCCCC)C(=O)CCC(=O)OCC(COC(=O)CCC(=O)N(CCCCCCCCCC)CCCCCCCCCC)(COC(=O)CCC(=O)N(CCCCCCCCCC)CCCCCCCCCC)NC(=O)CCN1CCCCC1` [TxT-5-4A20, 2-(((4-(didecylamino)-4-oxobutanoyl)oxy)methyl)-2-(3-(piperidin-1-yl)propanamido)propane-1,3-diyl bis(4-(didecylamino)-4-oxobutanoate)], the ζ-potential in data set [1] (setting [5]) is listed as -3.7 mV; in data set [1] (setting [6]), -7.4 mV. The “fluorescence of EGFP” value in the data set with liver was “not detectable”. In addition, the results for the mRNA concentration in data set [2] (setting [5]) and in data set [2] (setting [6]) were 0.019 µg/µL and 0.021 µg/µL, respectively. For the same compound, the mRNA encapsulation rate in data set [2] (setting [5]) is recorded as 98.4%; in data set [2] (setting [6]), 96.2%. The Pdl in data set [3] (setting [5]) and in data set [3] (setting [6]) was 0.08 in each case. Further, the “number average particle size” value was determined as 98.6 nm in data set [3] (setting [5]) and 110.1 nm in data set [3] (setting [6]). For the same compound, the values for the ζ-average particle size in data set [3] (setting [5]) and in data set [3] (setting [6]) were 136.8 nm and 140.9 nm, respectively. Further, the pKa in data set [4] worked out at 6.49.
Turning to `CCCCCCC(CCCCCC)COC(=O)CCCC(=O)OCC(COC(=O)CCCC(=O)OCC(CCCCCC)CCCCCC)(COC(=O)CCCC(=O)OCC(CCCCCC)CCCCCC)NC(=O)CCN1CCCCC1` [TxT-5-5E14, bis(2-hexyloctyl) O,O'-(2-(((5-((2-hexyloctyl)oxy)-5-oxopentanoyl)oxy)methyl)-2-(3-(piperidin-1-yl)propanamido)propane-1,3-diyl) diglutarate], in data set [1] (setting [5]), the ζ-potential is listed as -9.7 mV. Moreover, in data set [1] (setting [6]), the ζ-potential is recorded as -11.6 mV. Moreover, the “fluorescence of EGFP” value with liver is recorded as “fluorescence of EGFP was observed”. In data set [2] (setting [5]), this compound yielded a mRNA concentration of 0.022 µg/µL and a mRNA encapsulation rate of 98.8%. In data set [2] (setting [6]), this compound displayed a mRNA concentration of 0.024 µg/µL and a mRNA encapsulation rate of 98.3%. For the same compound, in data set [3] (setting [5]), the Pdl came to 0.17, the “number average particle size” value is 60.2 nm and the ζ-average particle size came out at 95.7 nm. Besides, in data set [3] (setting [6]), the Pdl stood at 0.14, the “number average particle size” value is 71.1 nm and the ζ-average particle size worked out at 103.3 nm. The pKa in data set [4] worked out at 5.38.

The values are drawn from patent publication EP4722195A1, “PH-SENSITIVE CATIONIC LIPID AND LIPID NANOPARTICLES” (National University Corporation Hokkaido University, priority 2023, dated 2024).
